Data: US20210038587A1, “METHODS AND COMPOSITIONS FOR TREATING NON-ERK MAPK PATHWAY INHIBITOR-RESISTANT CANCERS” (BIOMED VALLEY DISCOVERIES, INC., priority 2013, published 2021)

How the values were obtained:
Format in all cases: cell-based
RKO Parental = experiment: Single agent proliferation assay (CellTiter-Glo, 96 h)
Experimental: (§1) For assessment of drug sensitivity in cell-line models of acquired resistance, drug sensitivity of dose-escalated A375 cells and isogenic RKO cells was assessed in 96-hour proliferation assays. […] For the A375 assays Alamar blue (ThermoFisher) 10% (v/v) was added and incubated for 4 h, and fluorescent product was then detected using a BMG FLUOstar.
(§2) Compounds were prepared from DMSO stocks to give the desired final concentrations. The final DMSO concentration was constant at 0.1%. […] CellTiter-Glo® reagent (Promega, Madison, Wis.) was added according to manufacturer's instructions and luminescence detected using the BMG FLUOstar plate reader (BMG Labtech, Ortenberg, Germany).

[1] = tested on: RKO MEK1 (Q56P/+) Clone 1; experiment: as above; conditions: RKO MEK1 Q56P/+ Cl.1
Experimental: as §1
(§3) RKO MEK1 Q56P Isogenic cells were produced by Horizon Discovery (Cambridge, UK; #HD 106-019) using a recombinant AAV-mediated gene targeting strategy. Briefly, rAAV virus was generated following transfection of the appropriate targeting vector and helper vectors in HEK293T cells, purified using an AAV purification kit (Virapur, San Diego, USA) and titrated using qPCR. Parental homozygous RKO cells (homozygous wild type for MEK1) were then infected with rAAV virus and clones that had integrated the selection cassette were identified by G418 selection and expanded. Correctly targeted clones that were heterozygous for knock-in of the MEK1 Q56P point mutation into a single allele were identified by PCR and sequencing.
as §2

[2] = tested on: RKO MEK1 (Q56P/+) Clone 2; experiment: as above; conditions: RKO MEK1 Q56P/+ Cl.2
Experimental: as §1, §3, §2

AN3Ca = experiment: Reverse Phase Protein Analysis (RPPA); conditions: % change from DMSO (matched cell line)
Experimental: (§4) Control wells were treated with DMSO at 0.1% (v/v) for 6 hours prior to cell lysate generation. Samples were then analyzed using reverse-phase protein microarray technology (Theranostics Health).
(§5) Cell lines with common alterations in BRAF and RAS were assayed: BRAF^V600E mutant lines A375, Colo205, and HT29; KRAS^G12C-mutant cell line MIAPACa-2; KRAS^G13D-mutant cell line HCT116; and AN3Ca with atypical HRAS^F82L mutation. Changes in protein levels are shown as a percentage change from dimethyl sulfoxide (DMSO)-treated parental control (FIG. 32A and Table 23).

HT29 = experiment: Reverse Phase Protein Analysis (RPPA); conditions: % change from DMSO (matched cell line)
Experimental: as §4, §5

[3] = tested on: A375, MIAPaCa-2, HCT116, Colo205, HT-29, and AN3Ca cells; experiment: Reverse Phase Protein Analysis (RPPA), all six cell lines; conditions: 10 μM, 6 hours
Experimental: as §4, §5

Compound: CC(C)Nc1cc(-c2c[nH]c(C(=O)N[C@H](CO)c3cccc(Cl)c3)c2)c(Cl)cn1 [BVD-523]
- IC50 (RKO Parental): 0.2 µM
- IC50 [1]: 0.17 µM
- IC50 [2]: 0.18 µM
- Avg (4ebp1 T70) (AN3Ca): 32.17%
- Avg (Akt S473) (AN3Ca): 52.11%
- Avg (Akt) (AN3Ca): −22.43%
- Avg (Bad S136) (AN3Ca): −1.02%
- Avg (Bad S155) (AN3Ca): 0.66%
- Avg (Bak) (AN3Ca): 3.38%
- Avg (Bax) (AN3Ca): −10.47%
- Avg (Bcl 2) (AN3Ca): −16.83%
- Avg (Bcl2 S70) (AN3Ca): −14.81%
- Avg (Bcl 2 T56) (AN3Ca): −12.85%
- Avg (Bim) (AN3Ca): −12.57%
- Avg (CREB S133) (AN3Ca): 1.03%
- Avg (Caspase 3 CL D175) (AN3Ca): −10.8%
- Avg (Caspase 7 Cl D198) (AN3Ca): −12.35%
- Avg (Chk1) (AN3Ca): −8.45%
- Avg (Chk1 S345) (AN3Ca): −13.34%
- Avg (Cyclin D1) (AN3Ca): −0.69%
- Avg (ERK 1 2) (AN3Ca): −9.05%
- Avg (ERK 1 2 T202 Y204) (AN3Ca): 733.27%
- Avg (MAK1 S360) (AN3Ca): 0.49%
- Avg (Mcl1) (AN3Ca): −4.9%
- Avg (Raptor S792) (AN3Ca): −8.47%
- Avg (Raptor) (AN3Ca): −13.82%
- Avg (Rictor) (AN3Ca): −4.52%
- Avg (Stat1) (AN3Ca): −5.65%
- Avg (Stat3) (AN3Ca): −4.97%
- Avg (bad S112) (AN3Ca): −54.1%
- Avg (c Fos) (AN3Ca): −5.15%
- Avg (c Myc) (AN3Ca): −0.58%
- Avg (mTOR S2448) (AN3Ca): −10.79%
- Avg (mTOR S2481) (AN3Ca): 2.75%
- Avg (mTOR) (AN3Ca): 5.58%
- Avg (p70 S6 Kinase) (AN3Ca): −10.27%
- Avg (p90 RSK S380) (AN3Ca): −28.11%
- Avg(S6 Ribo Prot S235 236) (AN3Ca): −43.41%
- Avg(S6 Ribo Prot S240 244) (AN3Ca): −22.2%
- Avg(Tuberin TSC2 Y1571) (AN3Ca): 2.86%
- Avg(p70 S6 Kinase S371 S394) (AN3Ca): 32.26%
- Avg(p70 S6 Kinase T389 T412) (AN3Ca): −14.78%
- Avg (4ebp1 T70) (HT29): −41.47%
- Avg (Akt S473) (HT29): −3.06%
- Avg (Akt) (HT29): −13.41%
- Avg (Bad S136) (HT29): 10.73%
- Avg (Bad S155) (HT29): −25.9%
- Avg (Bak) (HT29): −1.42%
- Avg (Bax) (HT29): 8.39%
- Avg (Bcl 2) (HT29): 10.68%
- Avg (Bcl2 S70) (HT29): 2.83%
- Avg (Bcl 2 T56) (HT29): −8.18%
- Avg (Bim) (HT29): 2.81%
- Avg (CREB S133) (HT29): −3.46%
- Avg (Caspase 3 CL D175) (HT29): −7.03%
- Avg (Caspase 7 Cl D198) (HT29): −6.93%
- Avg (Chk1) (HT29): 7.4%
- Avg (Chk1 S345) (HT29): −13.48%
- Avg (Cyclin D1) (HT29): −37.21%
- Avg (ERK 1 2) (HT29): −44.3%
- Avg (ERK 1 2 T202 Y204) (HT29): 54.82%
- Avg (MAK1 S360) (HT29): 1.49%
- Avg (Mcl1) (HT29): −2.83%
- Avg (Raptor S792) (HT29): −10.48%
- Avg (Raptor) (HT29): −8.53%
- Avg (Rictor) (HT29): −18.76%
- Avg (Stat1) (HT29): 4.74%
- Avg (Stat3) (HT29): −6.46%
- Avg (bad S112) (HT29): −20.66%
- Avg (c Fos) (HT29): −13.48%
- Avg (c Myc) (HT29): 17.85%
- Avg (mTOR S2448) (HT29): −20.68%
- Avg (mTOR S2481) (HT29): −8.64%
- Avg (mTOR) (HT29): 5.02%
- Avg (p70 S6 Kinase) (HT29): −10.64%
- Avg (p90 RSK S380) (HT29): −60.5%
- Avg(S6 Ribo Prot S235 236) (HT29): −44.68%
- Avg(S6 Ribo Prot S240 244) (HT29): −25.67%
- Avg(Tuberin TSC2 Y1571) (HT29): 0.66%
- Avg(p70 S6 Kinase S371 S394) (HT29): −35.94%
- Avg(p70 S6 Kinase T389 T412) (HT29): −24.58%

Compound: O=C(Nc1ccc2[nH]nc(-c3ccncc3)c2c1)[C@@H]1CCN(CC(=O)N2CCN(c3ccc(-c4ncccn4)cc3)CC2)C1 [SCH772984]
- IC50 (RKO Parental): 0.04 µM
- IC50 [1]: 0.14 µM
- IC50 [2]: 0.12 µM
- pERK1/2 (ERK1/2-T202, -Y204) [3]: inhibited pERK1/2 in all cell lines
- Avg (4ebp1 T70) (AN3Ca): 61.57%
- Avg (Akt S473) (AN3Ca): 66.17%
- Avg (Akt) (AN3Ca): −16.35%
- Avg (Bad S136) (AN3Ca): 5.26%
- Avg (Bad S155) (AN3Ca): 12.92%
- Avg (Bak) (AN3Ca): 9.73%
- Avg (Bax) (AN3Ca): 0.15%
- Avg (Bcl 2) (AN3Ca): −5.14%
- Avg (Bcl2 S70) (AN3Ca): −12.42%
- Avg (Bcl 2 T56) (AN3Ca): −10.73%
- Avg (Bim) (AN3Ca): −14.09%
- Avg (CREB S133) (AN3Ca): 3.64%
- Avg (Caspase 3 CL D175) (AN3Ca): 1.25%
- Avg (Caspase 7 Cl D198) (AN3Ca): −24.17%
- Avg (Chk1) (AN3Ca): 1.35%
- Avg (Chk1 S345) (AN3Ca): 14.56%
- Avg (Cyclin D1) (AN3Ca): −11.33%
- Avg (ERK 1 2) (AN3Ca): −9.27%
- Avg (ERK 1 2 T202 Y204) (AN3Ca): 19.75%
- Avg (MAK1 S360) (AN3Ca): −5.02%
- Avg (Mcl1) (AN3Ca): −7.15%
- Avg (Raptor S792) (AN3Ca): −4.03%
- Avg (Raptor) (AN3Ca): −11.09%
- Avg (Rictor) (AN3Ca): −10.89%
- Avg (Stat1) (AN3Ca): 5.52%
- Avg (Stat3) (AN3Ca): −6.01%
- Avg (bad S112) (AN3Ca): −39.14%
- Avg (c Fos) (AN3Ca): −9.18%
- Avg (c Myc) (AN3Ca): 0.88%
- Avg (mTOR S2448) (AN3Ca): −4.84%
- Avg (mTOR S2481) (AN3Ca): 11.24%
- Avg (mTOR) (AN3Ca): −5.33%
- Avg (p70 S6 Kinase) (AN3Ca): −7.71%
- Avg (p90 RSK S380) (AN3Ca): −40.26%
- Avg(S6 Ribo Prot S235 236) (AN3Ca): −61.99%
- Avg(S6 Ribo Prot S240 244) (AN3Ca): −35.88%
- Avg(Tuberin TSC2 Y1571) (AN3Ca): 13.44%
- Avg(p70 S6 Kinase S371 S394) (AN3Ca): 24.56%
- Avg(p70 S6 Kinase T389 T412) (AN3Ca): −16.63%
- Avg (4ebp1 T70) (HT29): −40.58%
- Avg (Akt S473) (HT29): −22.14%
- Avg (Akt) (HT29): −16.93%
- Avg (Bad S136) (HT29): 9.67%
- Avg (Bad S155) (HT29): −7.98%
- Avg (Bak) (HT29): 2.78%
- Avg (Bax) (HT29): −20.59%
- Avg (Bcl 2) (HT29): −10.01%
- Avg (Bcl2 S70) (HT29): −11.45%
- Avg (Bcl 2 T56) (HT29): −17.9%
- Avg (Bim) (HT29): 0.69%
- Avg (CREB S133) (HT29): 9.87%
- Avg (Caspase 3 CL D175) (HT29): −7.9%
- Avg (Caspase 7 Cl D198) (HT29): 7.02%
- Avg (Chk1) (HT29): 14.64%
- Avg (Chk1 S345) (HT29): 19.05%
- Avg (Cyclin D1) (HT29): −36.66%
- Avg (ERK 1 2) (HT29): −37%
- Avg (ERK 1 2 T202 Y204) (HT29): −74.84%
- Avg (MAK1 S360) (HT29): 1.25%
- Avg (Mcl1) (HT29): 14.05%
- Avg (Raptor S792) (HT29): −6.38%
- Avg (Raptor) (HT29): −12.18%
- Avg (Rictor) (HT29): −13.03%
- Avg (Stat1) (HT29): 5.79%
- Avg (Stat3) (HT29): −2.15%
- Avg (bad S112) (HT29): −33.9%
- Avg (c Fos) (HT29): −9.26%
- Avg (c Myc) (HT29): 13.55%
- Avg (mTOR S2448) (HT29): −22.65%
- Avg (mTOR S2481) (HT29): 13.93%
- Avg (mTOR) (HT29): 9.31%
- Avg (p70 S6 Kinase) (HT29): −2.36%
- Avg (p90 RSK S380) (HT29): −53.88%
- Avg(S6 Ribo Prot S235 236) (HT29): −44.9%
- Avg(S6 Ribo Prot S240 244) (HT29): −25.73%
- Avg(Tuberin TSC2 Y1571) (HT29): 13.25%
- Avg(p70 S6 Kinase S371 S394) (HT29): −20.52%
- Avg(p70 S6 Kinase T389 T412) (HT29): −9.55%
